Values joined by “and” are separate entries in the source; they are usually repeats but may differ in a detail not shown here. Equal entries are not always repeated. “Also recorded” adds a separate entry of the source. One block for each compound: values may come before it.
Columns and labels:
[1] = Particle size and polydispersity index (PDI) of lipid nanoparticles by dynamic light scattering; format: physicochemical; conditions: LNP formulation of Example 4, cationic lipid/DSPC/cholesterol/DMG-PEG2000 50:10:38.5:1.5; 25° C., 90° scattering angle
Procedure: The particle size and polydispersity index (PDI) were determined by dynamic light scattering using Malvern laser particle size analyzer.
10 μL of the liposome solution was weighed, diluted to 1 mL with RNase-free deionized water, and added to the sample pool. Each sample was measured in triplicate. The measurement conditions were: 90° scattering angle, and 25° C.

[2] = tested on: female BALB/C mice; assay: Mouse live imaging test of LNP formulations of Fluc-mRNA; format: in vivo; conditions: for expression intensity of Fluc-mRNA in mice over time (in words): 3 h to 72 h after intramuscular injection
Procedure: A LNP formulation containing 10 μg of Fluc-mRNA was intramuscularly injected into female BALB/C mice aged 4-6 weeks and weighing 17-19 g, and at specific time points (3 h, 6 h, 24 h, 48 h and 72 h) after administration, mice were injected intraperitoneally with a fluorescent imaging substrate. The mice moved freely for 5 minutes, and then the average radiation intensity (corresponding to fluorescence expression intensity) of the protein expressed by the mRNA carried by LNP in mice was detected using the IVIS Spectrum small animal live imager.
To compare the protein expression and duration in mice of LNP formulations prepared from cationic lipid YK-009 and compound 25, we prepared LNP formulations with Fluc-mRNA contents of 10 μg, 7.5 μg, 5 μg and 2.5 μg (the carrier components of LNP formulations were cationic lipid, neutral lipid, structured lipid and polymer-conjugated lipid with a molar ratio of 50:10:38.5:1.5, wherein the cationic lipid was YK-009 or compound 25). The mouse live imaging test method was the same as above.

[3] = tested on: 293T cells; assay: Cell survival rate assay (CCK-8); format: cell-based; conditions: for Cell survival rate (%) / reduction in the cell survival rate compared with YK-009: 24 hours; for reduction in the cell survival rate compared with YK-009: LNP formulation of Fluc-mRNA
Procedure: (§1) Cell recovery and passage: 293T cells were recovered, cultured in a culture dish, and passaged to the required number of cells.
(§2) Seeding plate: The cells in the culture dish were digested and counted. Cells were spread in a 96-well plate at 10,000 cells per well and in a 12-well plate at 150,000 cells per well. Cells were cultured overnight until the cells adhered to the wall.
A LNP formulation containing 1.5 μg of Fluc-mRNA (the carrier component of the LNP formulation was cationic lipid, neutral lipid, structured lipid and polymer-conjugated lipid with a molar ratio of 50:10:38.5:1.5, wherein the cationic lipid was listed in Table 1) was added to the cell culture medium of a 96-well plate, and further cultivated for 24 hours. 10 μL of CCK-8 solution was then added to each well, and the culture plate was incubated in an incubator for 1 hour. The absorbance at 450 nm was measured by a microplate reader.
To compare the cytotoxicity of LNP formulations prepared from cationic lipid YK-009 and compound 25, we prepared LNP formulations with Fluc-mRNA contents of 1.5 μg, 1.125 μg, 0.75 μg and 0.375 μg (the carrier components of LNP formulations were cationic lipid, neutral lipid, structured lipid and polymer-conjugated lipid with a molar ratio of 50:10:38.5:1.5, wherein the cationic lipid was YK-009 or compound 25). The assay method of cell survival rate was the same as above.

[4] = tested on: 293T cells; assay: Fluorescent detection of Fluc-mRNA (transfection efficiency of LNP formulations in cells); format: cell-based
Procedure: as §1, §2
A LNP formulation containing 0.3 μg of Fluc-mRNA (the carrier components of the LNP formulation were cationic lipid, neutral lipid, structured lipid and polymer-conjugated lipid with a molar ratio of 50:10:38.5:1.5, wherein the cationic lipid was listed in Table 1) was added to the cell culture medium of a 96-well plate, and further incubated for 24 hours. The corresponding reagent was added according to the instructions of the […] Luciferase Assay Kit, and the fluorescence expression intensity of each well was detected by an IVIS fluorescence detection system. This test verified the transfection efficiency of LNP formulations in cells.
In order to further compare the intracellular transfection efficiency of LNP formulations prepared from cationic lipid YK-009 and compound 25, we prepared LNP formulations with Fluc-mRNA contents of 0.3 μg, 0.225 μg, 0.15 μg and 0.075 μg, respectively (the carrier components of the LNP formulation were cationic lipid, neutral lipid, structured lipid and polymer-conjugated lipid with a molar ratio of 50:10:38.5:1.5, wherein the cationic lipid was YK-009 or compound 25). The intracellular transfection activity of the prepared LNP formulations was detected, and the detection method was the same as above.

[5] = LNP formulation containing 1.5 μg of Fluc-mRNA
[6] = mRNA transfection, time not stated

PDI (%) [1]: 18.3% | Particle size (nm) [1]: 205.20 nm
SMILES: CCCCC/C=C\C/C=C\CCCCCCCCC(CCCCCCCC/C=C\C/C=C\CCCCC)OC(=O)CCCN(C)C [MC3, reference compound]
expression intensity of Fluc-mRNA in mice over time (in words) [2]: very low at each time | Cell survival rate (%) [3, 5]: 88%

PDI (%) [1]: 19.8% | Particle size (nm) [1]: 124.46 nm
SMILES: CCCCCCCCCCOC(=O)CCCN(CCO)CCCCCC(=O)OCC(CCCCCCC)CCCCCCC [YK-010, 2-heptylnonyl 6-((4-(decyloxy)-4-oxobutyl)(2-hydroxyethyl)amino)hexanoate]
Cell survival rate (%) [3, 5]: 77% | reduction in the cell survival rate compared with YK-009 [3]: 23%

SMILES: CCCCCCCCCCCOC(=O)CCCCCN(CCO)CCCCCCCC(=O)OC(CCCCCCCC)CCCCCCCC [Compound 25, reference compound]
PDI (%) [1]: 23.1% | Particle size (nm) [1]: 117.10 nm | expression intensity of Fluc-mRNA in mice over time (in words) [2]: decreased rapidly at 6˜48 h | Cell survival rate (%) ([3]; Fluc-mRNA content 0.375 μg): 99% | Cell survival rate (%) ([3]; Fluc-mRNA content 0.75 μg): 97% | Cell survival rate (%) ([3]; Fluc-mRNA content 1.125 μg): 95% | Cell survival rate (%) ([3]; Fluc-mRNA content 1.5 μg): 91%

PDI (%) [1]: 10.2% | Particle size (nm) [1]: 164.03 nm
SMILES: CCCCCCCCCCCOC(=O)CCCN(CCO)CCCCCC(=O)OCC(CCCCCCCC)CCCCCCCC [YK-001, 2-octyldecyl 6-((4-(undecyloxy)-4-oxobutyl) (2-hydroxyethyl)amino)hexanoate]
Cell survival rate (%) [3, 5]: 85%

PDI (%) [1]: 13.6% | Particle size (nm) [1]: 178.06 nm
SMILES: CCCCCCCCCCCOC(=O)CCCCCN(CCO)CCCCCC(=O)OCC(CCCCCCCC)CCCCCCCC [YK-007, 2-octyldecyl 6-((2-hydroxyethyl)(6-oxo-6-(undecyloxy)hexyl)amino)hexanoate]
Cell survival rate (%) [3, 5]: 96%

PDI (%) [1]: 18.2% | Particle size (nm) [1]: 136.44 nm
SMILES: CCCCCCCCCCOC(=O)CCCN(CCO)CCCCCC(=O)OCC(CCCCCCCC)CCCCCCCC [YK-009, 2-octyldecyl 6-((4-(decyloxy)-4-oxobutyl)(2-hydroxyethyl)amino)hexanoate]
expression intensity of Fluc-mRNA in mice over time (in words) [2]: highest expression intensity; also recorded: maintain high expression in vivo for a long time | expression in mice, times higher than that for MC3 [2, 6]: more than 25 times | expression in mice, times higher than that for compound 27 [2, 6]: > 6 times | increase in expression in mice compared with compound 25 [2, 6]: 7 fold | difference in toxicity to transfected cells between YK-009 and YK-010 [3]: ≥ 25% | Cell survival rate (%) ([3]; Fluc-mRNA content 0.375 μg): 100% | Cell survival rate (%) ([3]; Fluc-mRNA content 0.75 μg): 100% | Cell survival rate (%) ([3]; Fluc-mRNA content 1.125 μg): 100% | Cell survival rate (%) ([3]; Fluc-mRNA content 1.5 μg): 100% | Cell survival rate (%) [3, 5]: 100% | reduction in toxicity to transfected cells compared with compound 25 ([3]; mRNA transfection): 9% | toxicity to transfected cells, lower than that of MC3 ([3]; mRNA transfection): 12% | toxicity to transfected cells, lower than that of compound 23 ([3]; mRNA transfection): 13% | toxicity to transfected cells, lower than that of compound 27 ([3]; mRNA transfection): 16% | RLU value / cell transfection efficiency, times that of MC3 ([4]; Fluc-mRNA LNP formulation): 42 times and 40 times | RLU value / cell transfection efficiency, times that of YK-004 ([4]; Fluc-mRNA LNP formulation): 39 times | RLU value / cell transfection efficiency, times that of YK-010 ([4]; Fluc-mRNA LNP formulation): 58 times and ~60 times | RLU value / cell transfection efficiency, times that of compound 27 ([4]; Fluc-mRNA LNP formulation): 13 times | fluorescence absorption, times that of the compound 25 formulation ([4]; LNP formulation containing 0.075 μg of Fluc-mRNA): 3.7 times | fluorescence absorption, times that of the compound 25 formulation ([4]; LNP formulation containing 0.15 μg of Fluc-mRNA): 4.0 times | fluorescence absorption, times that of the compound 25 formulation ([4]; LNP formulation containing 0.225 μg of Fluc-mRNA): 7.0 times | fluorescence absorption, times that of the compound 25 formulation ([4]; LNP formulation containing 0.3 μg of Fluc-mRNA): 4.4 times | cell transfection efficiency, fold compared with compound 25 ([4]; mRNA transfection, content not stated): 7 times

PDI (%) [1]: 24.4% | Particle size (nm) [1]: 205.00 nm
SMILES: CCCCCCCCCOC(=O)CCCN(CCO)CCCCCC(=O)OCC(CCCCCCCC)CCCCCCCC [YK-008, 2-octyldecyl 6-((4-(nonyloxy)-4-oxobutyl)(2-hydroxyethyl)amino)hexanoate]
Cell survival rate (%) [3, 5]: 91%

PDI (%) [1]: 22.9% | Particle size (nm) [1]: 125.35 nm
SMILES: CCCCCCCCCCOC(=O)CCCN(CCO)CCCCC(=O)OCC(CCCCCCCC)CCCCCCCC [YK-006, 2-octyldecyl 5-((4-(decyloxy)-4-oxobutyl)(2-hydroxyethyl)amino)pentanoate]
Cell survival rate (%) [3, 5]: 96%

PDI (%) [1]: 27.7% | Particle size (nm) [1]: 156.70 nm
SMILES: CCCCCCCCCCOC(=O)CCCCN(CCO)CCCCCC(=O)OCC(CCCCCCCC)CCCCCCCC [YK-002, 2-octyldecyl 6-((5-(decyloxy)-5-oxopentyl)(2-hydroxyethyl)amino)hexanoate]
Cell survival rate (%) [3, 5]: 89% | reduction in the cell survival rate compared with YK-009 [3]: 11%

PDI (%) [1]: 21.2% | Particle size (nm) [1]: 173.16 nm
SMILES: CCCCCCCCCCOC(=O)CCCN(CCO)CCCCCC(=O)OCC(CCCCCC)CCCCCC [YK-011, 2-hexyloctyl 6-((4-(decyloxy)-4-oxobutyl)(2-hydroxyethyl)amino)hexanoate]
Cell survival rate (%) [3, 5]: 98%

PDI (%) [1]: 24.4% | Particle size (nm) [1]: 114.12 nm
SMILES: CCCCCCCCCOC(=O)CCCCCCCN(CCO)CCCCCCCCCC(=O)OC(CCCCCCCC)CCCCCCCC [Compound 23, nonyl 8-((2-hydroxyethyl)(10-((9-heptadecyl)oxy)-10-oxodecyl)amino)octanoate, reference compound]
expression intensity of Fluc-mRNA in mice over time (in words) [2]: decreased rapidly between 6 h and 48 h | Cell survival rate (%) [3, 5]: 87% | reduction in the cell survival rate compared with YK-009 [3]: 13%

PDI (%) [1]: 17.3% | Particle size (nm) [1]: 148.75 nm
SMILES: CCCCCCCCCCOC(=O)CCCN(CCO)CCCCCCCC(=O)OC(CCCCCCCC)CCCCCCCC [YK-005, 9-heptadecyl 8-((4-(decyloxy)-4-oxobutyl)(2-hydroxyethyl)amino)octanoate]
Cell survival rate (%) [3, 5]: 88%

PDI (%) [1]: 9.7% | Particle size (nm) [1]: 190.65 nm
SMILES: CCCCCCCCCCOC(=O)CCCN(CCO)CCCC(=O)OCC(CCCCCCCC)CCCCCCCC [YK-004, 2-octyldecyl 4-((4-(decyloxy)-4-oxobutyl)(2-hydroxyethyl)amino)butyrate]
Cell survival rate (%) [3, 5]: 87%

PDI (%) [1]: 21.3% | Particle size (nm) [1]: 119.91 nm
SMILES: CCCCCCCCCCOC(=O)CCCCCN(CCO)CCCCCC(=O)OCC(CCCCCCCC)CCCCCCCC [YK-003, 2-octyldecyl 6-((6-(decyloxy)-6-oxohexyl)(2-hydroxyethyl)amino)hexanoate]
expression intensity of Fluc-mRNA in mice over time (in words) [2]: highest expression intensity | expression in mice, times higher than that for MC3 [2, 6]: more than 18 times | expression in mice, times higher than that for compound 23 [2, 6]: > 8 times | Cell survival rate (%) [3, 5]: 84%

PDI (%) [1]: 13.6% | Particle size (nm) [1]: 178.85 nm
SMILES: CCCCCCCCCOC(=O)CCCCCCCN(CCO)CCCCCC(=O)OC(CCCCCCCC)CCCCCCCC [Compound 27, nonyl 8-((2-hydroxyethyl)(6-((9-heptadecyl)oxy)-6-oxohexyl)amino)octanoate, reference compound]
expression intensity of Fluc-mRNA in mice over time (in words) [2]: decreased rapidly between 6 h and 48 h | Cell survival rate (%) [3, 5]: 84% | reduction in the cell survival rate compared with YK-009 [3]: 16%
